Measured values: patent US20100240654A1, “HYDRAZIDE DERIVATIVES” (priority 2004, published 2010)
Blank lines part the entries; values can stand above or below the molecule they belong to.

What was measured:
[1] = target: T1, human clotting factor VIIa (Homo sapiens, UniProt P08709); assay: Inhibitory activity against clotting factor VIIa (chromogenic substrate Spectrozyme FVIIa, with tissue factor); assay type: biochemical; conditions: 10 nmol/L TF, 5 nmol/L Factor VIIa, room temperature 40 minutes, 405 nm
T1 construct: a human clotting factor VIIa (Factor VIIa) purified sample; purchased Enzyme Research Laboratories (Factor VIIa); Calbiochem (tissue factor) HFVIIa (Factor VIIa); 612151 (tissue factor)
Experimental: Dimethylsulfoxide (DMSO) solutions were prepared with compounds of the invention at concentration of 10 mmol/L (10 mmol/L compound solutions).
One packet of tris-hydroxymethylaminomethane-preset (Tris Preset) (product of SIGMA Corp., Catalog No. T8293), 8.8 g of sodium chloride (NaCl) and 1 g of bovine serum albumin (BSA) were dissolved in 1 L of water to prepare a Tris-BSA buffer (100 mmol/L Tris, 0.15 mol/L NaCl, 0.1% BSA, pH 7.4).
The Tris-BSA buffer (180 μL) was added to the aforementioned 10 mmol/L compound solution (20 μL). A 10-fold dilution series was prepared for this mixture using the aforementioned Tris-BSA buffer, and solutions with the compound at concentrations of 1.0 mmol/L, 100, 10, 1, 0.1, 0.01 and 0.001 μmol/L were prepared (1.0 mmol-0.001 μmol/L compound solutions).
As a control, a solution was prepared by 10-fold dilution of DMSO with the Tris-BSA buffer (control 10% solution).
After dissolving one packet of Tris preset, NaCl (8.8 g) and BSA (1 g) in water (about 900 mL), there were added 1 mol/L aqueous calcium chloride (CaCl2) (15 mL) and 1 mg/mL aqueous cephalin (30 mL), and the total volume was brought to 1 L by adding water. To this solution was added a human tissue factor (TF) sample (product of Calbiochem, Catalog No. 612151) (450 μg) to a TF sample concentration of 10 nmol/L, and then a human clotting factor VIIa (Factor VIIa) purified sample (product of Enzyme Research Laboratories, Catalog No. HFVIIa) (250 μg) was added to a Factor VIIa purified sample concentration of 5 nmol/L, to prepare an enzyme solution (100 mmol/L Tris-HCl, 0.15 mol/L NaCl, 15 mmol/L CaCl2, 30 μg/mL cephalin, 1 mg/mL BSA, 10 nmol/L TF, 5 nmol/L Factor VIIa).
To 110 μL of this enzyme solution was added 15 μL of each of the 1.0 mmol-0.001 μmol/L compound solutions, and then 25 μL of a 1.0 mmol/L synthetic chromogenic substrate solution (Spectrozyme FVIIa) was added and the mixture was allowed to stand at room temperature for 40 minutes. Next, the amount of 4-nitroanilide released into the solution was quantitated by spectrophotometry (405 nm).
A control measurement was conducted in the same manner, using the control 10% solution instead of the compound solution.
This measurement yielded the enzyme reaction inhibition in the presence of 100 μmol/L to 0.1 nmol/L of each compound of the invention. The enzyme reaction inhibition at each compound concentration was subjected to non-linear regression analysis, and the IC50 value for inhibitory activity of each compound against clotting factor VIIa was calculated.

healthy human plasma = assay: Blood clotting time prolongation (prothrombin time, steel ball method); conditions: human thromboplastin, 37° C.

T1 sequence (P08709 213-466 limits assumed): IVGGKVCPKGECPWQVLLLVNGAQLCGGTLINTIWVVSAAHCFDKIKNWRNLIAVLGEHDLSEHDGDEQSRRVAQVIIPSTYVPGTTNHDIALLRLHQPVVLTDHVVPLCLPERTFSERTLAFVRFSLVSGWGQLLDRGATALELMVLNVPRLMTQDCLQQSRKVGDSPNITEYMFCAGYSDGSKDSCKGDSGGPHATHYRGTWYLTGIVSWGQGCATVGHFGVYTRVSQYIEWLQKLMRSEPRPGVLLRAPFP
T1 sequence (P08709 61-212 limits assumed): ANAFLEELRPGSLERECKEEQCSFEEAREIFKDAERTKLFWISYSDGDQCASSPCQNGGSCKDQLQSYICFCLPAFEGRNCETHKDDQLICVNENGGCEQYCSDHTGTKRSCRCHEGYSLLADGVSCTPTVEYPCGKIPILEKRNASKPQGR
T1 sequence (P13726 33-295 partner): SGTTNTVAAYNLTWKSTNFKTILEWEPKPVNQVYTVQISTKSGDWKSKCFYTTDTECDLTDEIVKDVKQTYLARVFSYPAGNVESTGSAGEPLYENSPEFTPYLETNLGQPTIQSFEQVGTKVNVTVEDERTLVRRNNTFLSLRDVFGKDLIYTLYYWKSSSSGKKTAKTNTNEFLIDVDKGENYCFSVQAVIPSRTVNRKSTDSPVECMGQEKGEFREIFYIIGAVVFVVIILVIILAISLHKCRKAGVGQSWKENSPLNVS

IC50 [1]: 0.184 µM
SMILES: CCOc1cc(C(Nc2ccc(C(=N)N)cc2)C(=O)NNC(=O)c2ccncc2Cl)ccc1OCC(=O)N(C)C.O=C(O)C(F)(F)F (stereo not drawn) [Example 61, 2-(4-(1-(4-Carbamimidoylphenylamino)-2-(N′-(3-chloropyridine-4-carbonyl)hydrazino)-2-oxoethyl)-2-ethoxyphenoxy)-N,N-dimethylacetamide trifluoroacetate]
h PT × 1.1: compound concentration which produced 10% prolongation compared to the control clotting time (healthy human plasma): 0.41 µM

IC50 [1]: 0.078 µM
SMILES: CCCOc1cc(OC)cc(C(Nc2ccc(C(=N)N)cc2)C(=O)NNC(=O)c2ccncc2)c1F.O=C(O)C(F)(F)F (stereo not drawn) [Example 81, 4-{1-(2-Fluoro-5-methoxy-3-propoxyphenyl)-2-oxo-2-[N′-(pyridine-4-carbonyl)hydrazino]ethylamino}benzamidine trifluoroacetate]
h PT × 1.1: compound concentration which produced 10% prolongation compared to the control clotting time (healthy human plasma): 1.20 µM

Continued, molecule first:

SMILES: CCOc1cc(C(Nc2ccc(C(=N)N)cc2)C(=O)NNC(=O)c2cnccc2C)ccc1OC(C)C.O=C(O)C(F)(F)F (stereo not drawn) [Example 27, 4-(1-(3-Ethoxy-4-isopropoxyphenyl)-2-(N′-(4-methylpyridine-3-carbonyl)hydrazino)-2-oxoethylamino)benzamidine trifluoroacetate]
IC50 [1]: 0.069 µM
h PT × 1.1: compound concentration which produced 10% prolongation compared to the control clotting time (healthy human plasma): 0.74 µM

SMILES: CCOc1cc(C(Nc2ccc(C(=N)N)cc2)C(=O)NNC(=O)c2ccccc2[N+](=O)[O-])ccc1OC(C)C.O=C(O)C(F)(F)F (stereo not drawn) [Example 32, 4-(1-(3-Ethoxy-4-isopropoxyphenyl)-2-(N′-(2-nitrobenzoyl)hydrazino)-2-oxoethylamino)benzamidine trifluoroacetate]
IC50 [1]: 0.11 µM
h PT × 1.1: compound concentration which produced 10% prolongation compared to the control clotting time (healthy human plasma): 0.80 µM

SMILES: COc1cc(F)c(C(Nc2ccc(C(=N)N)cc2)C(=O)NNC(=O)c2ccccc2Cl)cc1OC.O=C(O)C(F)(F)F (stereo not drawn) [Example 23, 4-(2-(N′-(2-Chlorobenzoyl)hydrazino)-1-(2-fluoro-4,5-dimethoxyphenyl)-2-oxoethylamino)benzamidine trifluoroacetate]
IC50 [1]: 0.255 µM
h PT × 1.1: compound concentration which produced 10% prolongation compared to the control clotting time (healthy human plasma): 1.20 µM

SMILES: CCOc1cc(C(Nc2ccc(C(=N)N)cc2)C(=O)NNC(=O)c2ccncc2F)ccc1OCCN(C)C.O=C(O)C(F)(F)F (stereo not drawn) [Example 53, 4-(1-(4-(2-Dimethylaminoethoxy)-3-ethoxyphenyl)-2-oxo-2-(N′-(3-fluoropyridine-4-carbonyl)hydrazino)ethylamino)benzamidine trifluoroacetate]
IC50 [1]: 0.164 µM
h PT × 1.1: compound concentration which produced 10% prolongation compared to the control clotting time (healthy human plasma): 0.65 µM
